Test results as given in PubChem BioAssay AID2060506 (Molecular Pharmacology Branch, DTP, NCI, 2025).
Several values for one entry are separate records, joined by “and”; a condition that tells them apart may be missing. Equal values may be shown once.

Test system: 598228-144-R-J1-PDC complex spheroid viability
Assay: Anticancer human tumor 598228-144-R-J1-PDC patient-derived serous endometrial adenocarcinoma cell line growth inhibition [GQUAD]
Conditions: for viability, T/C: stronger effect = lower value; active = viability on the fitted dose curve at most 10% of control; inactive = the rest
Excerpt: DNA G-quadruplex Stabilizer Agents in Combinations in Complex Spheroids
A high-throughput screen of multi-cell type tumor spheroids was designed to identify active combinations of DNA G-quadruplex stabilizer agents and targeted small molecules. Complex spheroids include a stromal component modeled by human endothelial cells (HUVEC) and fibroblasts modeled by human mesenchymal stem cells (MSCs). The concentration ranges selected for each drug and investigational agent were based upon clinically achievable concentrations if the clinical Cmax of the agent was known.
Compounds. The drugs and investigational agents: pidnarulex (CX-5461; NSC782164), APTO-253 (NSC789042), BRACO-19 (NSC847499), peposertib (NSC802822), ceralasertib (NSC780249), elimusertib (NSC800525), camonsertib (NSC841442), AZD-1390 (NSC803789), olaparib (NSC753686), talazoparib (NSC767125), ART-558 (NSC835418), sotorasib (NSC818433), MRTX-1133 (NSC836407), SN-38 (NSC673596), topotecan (NSC609699), etoposide (NSC141540), doxorubicin (NSC123127), gemcitabine (NSC613327), 5-fluorouracil (NSC19893), paclitaxel (NSC125973), vemurafenib (NSC761431), panobinostat (NSC761190), R-306465 (JNJ-16241199; NSC773264), adavosertib (NSC754352), TP-3654 (NSC805149), carboplatin (NSC241240), KSQ-4279 (NSC840948), and staurosporine (NSC755774) were obtained from the National Cancer Institute (NCI) Developmental Therapeutics Program Chemical Repository (34). The FDA-approved anticancer drug set is available from the NCI Developmental Therapeutics Program. […] The stock solutions were prepared in dimethyl sulfoxide (DMSO, Sigma-Aldrich, St. Louis, MO, cat. D2650) at 800-fold the tested concentration and stored at -70 degrees C prior to their use. All drugs and investigational agents were tested over a range starting from a high concentration at or near the clinical Cmax and decreasing in half-log increments. If the clinical Cmax for an agent had not been determined, the highest concentration tested was 10 microM.
2.3 Cell Culture. All cells were maintained in an incubator at 37 degrees C and 5% CO2 with 95% humidity. The PDC lines were cultured according to standard operating procedures established by the NCI PDMR. All PDCs were thawed and cultured in Matrigel-coated flasks prepared with a working solution of 1X Ham's F-12 nutrient mix, without supplementation (Invitrogen, cat. 11765054), 100 U/mL penicillin-streptomycin (Invitrogen, cat. 15140122), and 2.5% Matrigel (Corning Inc., cat. 354248) for the first three passages. The 857933-349-R-J2-PDC line was cultured in 6C/Colon 1B media, which includes advanced DMEM/F-12 (Thermo Fisher Scientific, cat. 12634028), 10 mM HEPES (Thermo Fisher Scientific, cat. 15630080), 1X GlutaMAX supplement (Thermo Fisher Scientific, cat. 35050061), 0.1 mg/mL primocin (InvivoGen, cat. ant-pm-2), 10% defined fetal bovine serum, heat inactivated (HyClone Laboratories Inc., cat. SH30070.03HI), 50% L-WRN conditioned media (ATCC, cat. CRL-3276), 1.25 mM N-Acetyl-L-cysteine (Sigma-Aldrich, cat. A9165), 10 mM nicotinamide (Sigma-Aldrich, cat. N0636), 1X B-27 supplement (Thermo Fisher Scientific, cat. 17504044), 1X N-2 supplement (Thermo Fisher Scientific, cat. 17502048), 10 microM Y-27632 dihydrochloride (Tocris Bioscience, cat. 1254), and 50 ng/mL human EGF recombinant protein (Thermo Fisher Scientific, cat. PHG0311). The 485176-168-R4-J1-PDC line was cultured in Panc media, which includes all 6C/Colon 1B media components plus 100 ng/mL human FGF-10 (Thermo Fisher Scientific, cat. 100-26), 500 nM SB-431542 (Selleckchem, cat. S1067), and gastrin (Tocris, cat. 3006).
[…]
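Also: spheroids exposed to the agents for one week before reading.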
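For viability, T/C in this document: percent of vehicle DMSO control viability so 100% = untreated growth.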

O=c1[nH]cc(F)c(=O)[nH]1
> 10000 nM: IC50 (curve of compound)
inactive: viability, T/C (compound 0.0316 µM) 133% and 103% and 95.3% | viability, T/C (compound 0.1 µM) 97.8% and 107% and 117% | viability, T/C (compound 0.316 µM) 85.5% and 104% and 88.7% | viability, T/C (compound 1 µM) 105% and 96.9% and 91.4% | viability, T/C (compound 3.16 µM) 97% and 95.8% and 105% | viability, T/C (compound 10 µM) 86.7% and 77.5% and 79.2%

C#Cc1c(F)ccc2cc(O)cc(-c3ncc4c(N5CC6CCC(C5)N6)nc(OCC56CCCN5CC(F)C6)nc4c3F)c12 (centres undefined)
> 10000 nM: IC50 (curve of compound)
inactive: viability, T/C (compound 0.0316 µM) 103% and 107% and 96.2% | viability, T/C (compound 0.1 µM) 98.9% and 118% and 97.6% | viability, T/C (compound 0.316 µM) 106% (2×) and 98.1% | viability, T/C (compound 1 µM) 100% and 101% and 92.4% | viability, T/C (compound 3.16 µM) 96.8% and 99.4% and 96.6% | viability, T/C (compound 10 µM) 84.1% and 105% and 83.3%

CC(C)(O)C1CCC(Nc2ccc3ncc(-c4cccc(C(F)(F)F)c4)n3n2)CC1 (centres undefined)
2200 nM and 1870 nM and 1730 nM: IC50 (curve of compound)
inactive: viability, T/C (compound 0.0316 µM) 112% and 97.2% and 85.6% | viability, T/C (compound 0.1 µM) 104% and 82.3% and 99.3% | viability, T/C (compound 0.316 µM) 99.6% and 94.8% and 96.7% | viability, T/C (compound 1 µM) 94% and 78.5% and 75.3% | viability, T/C (compound 3.16 µM) 28% and 26.1% and 20.6% | viability, T/C (compound 10 µM) 31.7% and 25.3% and 24.3%

O=C(c1cc(Cc2n[nH]c(=O)c3ccccc23)ccc1F)N1CCN(C(=O)C2CC2)CC1
> 10000 nM: IC50 (curve of compound)
inactive: viability, T/C (compound 0.0316 µM) 99.5% and 83.8% and 109% | viability, T/C (compound 0.1 µM) 96.3% and 85.6% and 96.4% | viability, T/C (compound 0.316 µM) 88.2% and 96.8% (2×) | viability, T/C (compound 1 µM) 118% and 79.3% and 98.2% | viability, T/C (compound 3.16 µM) 81% and 79.2% and 90.8% | viability, T/C (compound 10 µM) 74.8% and 64.3% and 66.1%

CC1COCCN1c1cc(C2(O)CC3CCC(C2)O3)c2cnn(-c3ccn[nH]3)c2n1 (centres undefined) + Cc1cnc(CNC(=O)c2c(=O)c3ccc(N4CCCN(C)CC4)nc3n3c2sc2ccccc23)cn1
< 31.6 nM: IC50 (curve of first compound, second compound 0.1 µM) | IC50 (curve of first compound, second compound 0.316 µM) | IC50 (curve of first compound, second compound 1 µM) | IC50 (curve of first compound, second compound 3.16 µM) | IC50 (curve of first compound, second compound 10 µM)
inactive: viability, T/C (second compound 0.0316 µM, first compound 0.0316 µM) 59.9% | viability, T/C (second compound 0.0316 µM, first compound 0.1 µM) 31.8% | viability, T/C (second compound 0.0316 µM, first compound 0.316 µM) 35.8% | viability, T/C (second compound 0.0316 µM, first compound 1 µM) 36.6% | viability, T/C (second compound 0.0316 µM, first compound 3.16 µM) 22.5% | viability, T/C (second compound 0.0316 µM, first compound 10 µM) 9.67% | viability, T/C (second compound 0.1 µM, first compound 0.0316 µM) 46% | viability, T/C (second compound 0.1 µM, first compound 0.1 µM) 38% | viability, T/C (second compound 0.1 µM, first compound 0.316 µM) 32.8% | viability, T/C (second compound 0.1 µM, first compound 1 µM) 34.7% | viability, T/C (second compound 0.1 µM, first compound 3.16 µM) 19.8% | viability, T/C (second compound 0.316 µM, first compound 0.0316 µM) 41% | viability, T/C (second compound 0.316 µM, first compound 0.1 µM) 39.7% | viability, T/C (second compound 0.316 µM, first compound 0.316 µM) 33% | viability, T/C (second compound 0.316 µM, first compound 1 µM) 36.4% | viability, T/C (second compound 0.316 µM, first compound 3.16 µM) 20.9% | viability, T/C (second compound 1 µM, first compound 0.0316 µM) 44.6% | viability, T/C (second compound 1 µM, first compound 0.1 µM) 41.9% | viability, T/C (second compound 1 µM, first compound 0.316 µM) 35.9% | viability, T/C (second compound 1 µM, first compound 1 µM) 24% | viability, T/C (second compound 1 µM, first compound 3.16 µM) 12.7% | viability, T/C (second compound 3.16 µM, first compound 0.0316 µM) 34.8% | viability, T/C (second compound 3.16 µM, first compound 0.1 µM) 37.9% | viability, T/C (second compound 3.16 µM, first compound 0.316 µM) 25.5% | viability, T/C (second compound 3.16 µM, first compound 1 µM) 7.29% | viability, T/C (second compound 10 µM, first compound 0.0316 µM) 14.6%
active: viability, T/C (second compound 0.1 µM, first compound 10 µM) 9.84% | viability, T/C (second compound 0.316 µM, first compound 10 µM) 7.21% | viability, T/C (second compound 1 µM, first compound 10 µM) 4.57% | viability, T/C (second compound 3.16 µM, first compound 3.16 µM) 0.25% | viability, T/C (second compound 3.16 µM, first compound 10 µM) 0.64% | viability, T/C (second compound 10 µM, first compound 0.1 µM) 0.4% | viability, T/C (second compound 10 µM, first compound 0.316 µM) 0.37% | viability, T/C (second compound 10 µM, first compound 1 µM) 0.29% | viability, T/C (second compound 10 µM, first compound 3.16 µM) 0.34% | viability, T/C (second compound 10 µM, first compound 10 µM) 0.24%
42.5 nM: IC50 (curve of first compound, second compound 0.0316 µM)

COc1cccc2c1C(=O)c1c(O)c3c(c(O)c1C2=O)CC(O)(C(=O)CO)CC3OC1CC(N)C(O)C(C)O1 (centres undefined)
inactive: viability, T/C (compound 0.0316 µM) 93.1% and 76% and 90.5% | viability, T/C (compound 0.1 µM) 76.3% and 67.8% and 76.2% | viability, T/C (compound 0.316 µM) 78.5% and 73.6% and 72.8% | viability, T/C (compound 1 µM) 41.3% and 36.2% and 49.6%
755 nM and 646 nM and 915 nM: IC50 (curve of compound)
active: viability, T/C (compound 3.16 µM) 1.91% and 2.01% and 1.77% | viability, T/C (compound 10 µM) 0.43% and 0.5% and 0.55%

Nc1ccn(C2OC(CO)C(O)C2(F)F)c(=O)n1 (centres undefined)
inactive: viability, T/C (compound 0.0316 µM) 44.7% and 45.7% and 52.1% | viability, T/C (compound 0.1 µM) 46.9% and 45.7% and 47.2% | viability, T/C (compound 0.316 µM) 49.2% and 45.3% and 41.9% | viability, T/C (compound 1 µM) 52% and 47.8% and 53% | viability, T/C (compound 3.16 µM) 40.2% and 36.2% and 38.9% | viability, T/C (compound 10 µM) 47.3% and 43.5% and 45.3%
< 31.6 nM: IC50 (curve of compound)
